Measurements reported in the supplement of paper PMC9663587.

Tests used:
YKL-5-124 = compound: C=CC(=O)Nc1ccc(C(=O)Nc2[nH]nc3c2CN(C(=O)N[C@H](CN(C)C)c2ccccc2)C3(C)C)cc1 [YKL-5-124]; assay: increase in dead-cell fraction, 72 h; higher = more death;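 note: breast cancer cell lines in 384-well plates, stained with Hoechst plus LIVE/DEAD far red dye and imaged, cells above an LDR intensity threshold counted dead, Hoechst-negative corpses included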
THZ531 [1] = compound: T1, CN(C)C/C=C/C(=O)Nc1ccc(C(=O)N2CCC[C@@H](Nc3ncc(Cl)c(-c4c[nH]c5ccccc45)n3)C2)cc1 [THZ531]; assay: as above
[2] = compound: CCc1cnn2c(NCc3ccc[n+]([O-])c3)cc(N3CCCC[C@H]3CCO)nc12; assay: as above
BSJ-03-123 [3] = compound: T2, CC(=O)c1c(C)c2cnc(Nc3ccc(N4CCN(CCOCCOCCOCCNC(=O)COc5cccc6c5C(=O)N(C5CCC(=O)NC5=O)C6=O)CC4)cn3)nc2n(C2CCCC2)c1=O [BSJ-03-123]; assay: as above
Neratinib/HKI272 [4] = compound: T3, CCOc1cc2ncc(C#N)c(Nc3ccc(OCc4ccccn4)c(Cl)c3)c2cc1NC(=O)/C=C/CN(C)C [Neratinib/HKI272]; assay: as above
THZ1 = compound: CN(C)C/C=C/C(=O)Nc1ccc(C(=O)Nc2cccc(Nc3ncc(Cl)c(-c4c[nH]c5ccccc45)n3)c2)cc1 [THZ1]; assay: as above
Vorinostat = compound: O=C(CCCCCCC(=O)Nc1ccccc1)NO [Vorinostat]
Ceritinib/LDK378 = compound: Cc1cc(Nc2ncc(Cl)c(Nc3ccccc3S(=O)(=O)C(C)C)n2)c(OC(C)C)cc1C1CCNCC1 [Ceritinib/LDK378]
Taselisib/GDC0032 = compound: Cc1nc(-c2cn3c(n2)-c2ccc(-c4cnn(C(C)(C)C(N)=O)c4)cc2OCC3)n(C(C)C)n1 [Taselisib/GDC0032]
INK128/MLN0128 = compound: CC(C)n1nc(-c2ccc3oc(N)nc3c2)c2c(N)ncnc21 [INK128/MLN0128]
AZD2014 = compound: CNC(=O)c1cccc(-c2ccc3c(N4CCOC[C@@H]4C)nc(N4CCOC[C@@H]4C)nc3n2)c1 [AZD2014]
[5] = compound: CC(=O)c1c(C)c2cnc(Nc3ccc(N4CCNCC4)cn3)nc2n(C2CCCC2)c1=O
THZ531 [6] = compound: T1, THZ531
BSJ-01-175 = compound: CN(C)C/C=C/C(=O)Nc1ccc(O[C@@H]2CCC[C@@H](Nc3ncc(Cl)c(-c4c[nH]c5ccccc45)n3)C2)cc1 [BSJ-01-175]
[7] = compound: CO[C@@H](C)Cn1c(=O)n(C)c2cnc3ccc(-c4cncc(C(C)(C)O)c4)cc3c21
Rucaparib = compound: CNCc1ccc(-c2[nH]c3cc(F)cc4c3c2CCNC4=O)cc1 [Rucaparib]
BSJ-03-123 [8] = compound: T2, BSJ-03-123
[9] = compound: CC(=O)Nc1cccc(-n2c(=O)n(C3CC3)c(=O)c3c(Nc4ccc(I)cc4F)n(C)c(=O)c(C)c32)c1
Volasertib/BI6727 = compound: CC[C@@H]1C(=O)N(C)c2cnc(Nc3ccc(C(=O)N[C@H]4CC[C@H](N5CCN(CC6CC6)CC5)CC4)cc3OC)nc2N1C(C)C [Volasertib/BI6727]
Doxorubicin = compound: COc1cccc2c1C(=O)c1c(O)c3c(c(O)c1C2=O)C[C@@](O)(C(=O)CO)C[C@@H]3O[C@H]1C[C@H](N)[C@H](O)[C@H](C)O1 [Doxorubicin]
Neratinib/HKI272 [10] = compound: T3, Neratinib/HKI272
Dasatinib = compound: Cc1nc(Nc2ncc(C(=O)Nc3c(C)cccc3Cl)s2)cc(N2CCN(CCO)CC2)n1 [Dasatinib]
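Throughout, for GR50, 72 h: breast cancer and non-malignant breast epithelial cell lines, Deep Dye Drop or Dye Drop imaging, nine half-log doses, GR normalized to time-zero plates and DMSO-only controls.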

Cell Line: SUM44PE
- increase in dead-cell fraction (YKL-5-124; 0.001 µM): 0.376
- increase in dead-cell fraction (YKL-5-124; 0.003162 µM): 0.0121
- increase in dead-cell fraction (YKL-5-124; 0.01 µM): 0.0391
- increase in dead-cell fraction (YKL-5-124; 0.03162 µM): 0.053
- increase in dead-cell fraction (YKL-5-124; 0.1 µM): 0.0951
- increase in dead-cell fraction (YKL-5-124; 0.3162 µM): 0.0965
- increase in dead-cell fraction (YKL-5-124; 1 µM): 0.127
- increase in dead-cell fraction (YKL-5-124; 3.162 µM): 0.447
- increase in dead-cell fraction (THZ531 [1]; 0.0001 µM): -0.0163
- increase in dead-cell fraction (THZ531 [1]; 0.0003162 µM): -0.0027
- increase in dead-cell fraction (THZ531 [1]; 0.001 µM): 0.0202
- increase in dead-cell fraction (THZ531 [1]; 0.003162 µM): -0.008
- increase in dead-cell fraction (THZ531 [1]; 0.01 µM): -0.0392
- increase in dead-cell fraction (THZ531 [1]; 0.03162 µM): -0.0411
- increase in dead-cell fraction (THZ531 [1]; 0.1 µM): 0.0916
- increase in dead-cell fraction ([2]; 0.0001 µM): 0.0041
- increase in dead-cell fraction ([2]; 0.0003162 µM): -0.0148
- increase in dead-cell fraction ([2]; 0.001 µM): 0.0007
- increase in dead-cell fraction ([2]; 0.003162 µM): -0.0141
- increase in dead-cell fraction ([2]; 0.01 µM): 0.102
- increase in dead-cell fraction ([2]; 0.03162 µM): 0.894
- increase in dead-cell fraction (BSJ-03-123 [3]; 0.001 µM): 0.0021
- increase in dead-cell fraction (BSJ-03-123 [3]; 0.003162 µM): 0.0071
- increase in dead-cell fraction (BSJ-03-123 [3]; 0.01 µM): 0.0014
- increase in dead-cell fraction (BSJ-03-123 [3]; 0.03162 µM): 0.0121
- increase in dead-cell fraction (BSJ-03-123 [3]; 0.1 µM): 0.0265
- increase in dead-cell fraction (BSJ-03-123 [3]; 0.3162 µM): 0.0126
- increase in dead-cell fraction (BSJ-03-123 [3]; 1 µM): 0.0666
- increase in dead-cell fraction (BSJ-03-123 [3]; 3.162 µM): 0.115
- increase in dead-cell fraction (Neratinib/HKI272 [4]; 0.0003162 µM): -0.0158
- increase in dead-cell fraction (Neratinib/HKI272 [4]; 0.001 µM): -0.0227
- increase in dead-cell fraction (Neratinib/HKI272 [4]; 0.003162 µM): -0.0156
- increase in dead-cell fraction (Neratinib/HKI272 [4]; 0.01 µM): 0.029
- increase in dead-cell fraction (Neratinib/HKI272 [4]; 0.03162 µM): 0.0991
- increase in dead-cell fraction (Neratinib/HKI272 [4]; 0.1 µM): 0.118
- increase in dead-cell fraction (Neratinib/HKI272 [4]; 0.3162 µM): 0.137
- increase in dead-cell fraction (Neratinib/HKI272 [4]; 1 µM): 0.22
- increase in dead-cell fraction (Neratinib/HKI272 [4]; 3.162 µM): 0.358
- increase in dead-cell fraction (THZ1; 0.0001 µM): 0.0181
- increase in dead-cell fraction (THZ1; 0.0003162 µM): -0.0186
- increase in dead-cell fraction (THZ1; 0.001 µM): 0.0262
- increase in dead-cell fraction (THZ1; 0.003162 µM): -0.0493
- increase in dead-cell fraction (THZ1; 0.01 µM): 0.0625
- increase in dead-cell fraction (THZ1; 1 µM): 0.0767
- GR50, 72 h (Vorinostat): 1.86 µM
- GR50, 72 h (Ceritinib/LDK378): 2.56 µM
- GR50, 72 h (Taselisib/GDC0032): 0.00347 µM
- GR50, 72 h (INK128/MLN0128): 0.0102 µM
- GR50, 72 h (AZD2014): 0.00197 µM
- GR50, 72 h [5]: 0.212 µM
- GR50, 72 h (THZ531 [6]): 0.0499 µM
- GR50, 72 h (BSJ-01-175): 0.0082 µM
- GR50, 72 h [7]: < 0.001 µM
- GR50, 72 h (Rucaparib): > 10 µM
- GR50, 72 h (BSJ-03-123 [8]): 0.818 µM
- GR50, 72 h [9]: > 1 µM
- GR50, 72 h (Volasertib/BI6727): 0.00884 µM
- GR50, 72 h (Doxorubicin): 0.0211 µM
- GR50, 72 h (Neratinib/HKI272 [10]): 0.0248 µM

Cell Line: SUM149
- increase in dead-cell fraction (YKL-5-124; 0.001 µM): 0.0758
- increase in dead-cell fraction (YKL-5-124; 0.003162 µM): 0.1
- increase in dead-cell fraction (YKL-5-124; 0.01 µM): 0.103
- increase in dead-cell fraction (YKL-5-124; 0.03162 µM): 0.0843
- increase in dead-cell fraction (YKL-5-124; 0.1 µM): 0.124
- increase in dead-cell fraction (YKL-5-124; 0.3162 µM): 0.124
- increase in dead-cell fraction (YKL-5-124; 1 µM): 0.0859
- increase in dead-cell fraction (YKL-5-124; 3.162 µM): 0.172
- increase in dead-cell fraction (YKL-5-124; 10 µM): 0.199
- increase in dead-cell fraction (THZ531 [1]; 0.0001 µM): 0.0045
- increase in dead-cell fraction (THZ531 [1]; 0.0003162 µM): -0.0031
- increase in dead-cell fraction (THZ531 [1]; 0.001 µM): 0
- increase in dead-cell fraction (THZ531 [1]; 0.003162 µM): -0.0086
- increase in dead-cell fraction (THZ531 [1]; 0.01 µM): -0.0054
- increase in dead-cell fraction (THZ531 [1]; 0.03162 µM): 0.0002
- increase in dead-cell fraction (THZ531 [1]; 0.1 µM): 0.0001
- increase in dead-cell fraction (THZ531 [1]; 0.3162 µM): 0.0691
- increase in dead-cell fraction (THZ531 [1]; 1 µM): 0.58
- increase in dead-cell fraction ([2]; 0.0001 µM): -0.0003
- increase in dead-cell fraction ([2]; 0.0003162 µM): -0.0062
- increase in dead-cell fraction ([2]; 0.001 µM): 0.0017
- increase in dead-cell fraction ([2]; 0.003162 µM): 0.0022
- increase in dead-cell fraction ([2]; 0.01 µM): 0.021
- increase in dead-cell fraction ([2]; 0.03162 µM): 0.756
- increase in dead-cell fraction ([2]; 0.1 µM): 0.832
- increase in dead-cell fraction ([2]; 0.3162 µM): 0.831
- increase in dead-cell fraction ([2]; 1 µM): 0.814
- increase in dead-cell fraction (BSJ-03-123 [3]; 0.001 µM): -0.0068
- increase in dead-cell fraction (BSJ-03-123 [3]; 0.003162 µM): -0.0064
- increase in dead-cell fraction (BSJ-03-123 [3]; 0.01 µM): -0.0053
- increase in dead-cell fraction (BSJ-03-123 [3]; 0.03162 µM): 0.0051
- increase in dead-cell fraction (BSJ-03-123 [3]; 0.1 µM): 0.0006
- increase in dead-cell fraction (BSJ-03-123 [3]; 0.3162 µM): -0.0032
- increase in dead-cell fraction (BSJ-03-123 [3]; 1 µM): 0.0245
- increase in dead-cell fraction (BSJ-03-123 [3]; 3.162 µM): 0.0364
- increase in dead-cell fraction (BSJ-03-123 [3]; 10 µM): 0.217
- increase in dead-cell fraction (Neratinib/HKI272 [4]; 0.0003162 µM): -0.0005
- increase in dead-cell fraction (Neratinib/HKI272 [4]; 0.001 µM): -0.0026
- increase in dead-cell fraction (Neratinib/HKI272 [4]; 0.003162 µM): -0.0047
- increase in dead-cell fraction (Neratinib/HKI272 [4]; 0.01 µM): -0.0034
- increase in dead-cell fraction (Neratinib/HKI272 [4]; 0.03162 µM): 0.001
- increase in dead-cell fraction (Neratinib/HKI272 [4]; 0.1 µM): 0.0172
- increase in dead-cell fraction (Neratinib/HKI272 [4]; 0.3162 µM): 0.0405
- increase in dead-cell fraction (Neratinib/HKI272 [4]; 1 µM): 0.0409
- increase in dead-cell fraction (Neratinib/HKI272 [4]; 3.162 µM): 0.0594
- increase in dead-cell fraction (THZ1; 0.0001 µM): -0.0005
- increase in dead-cell fraction (THZ1; 0.0003162 µM): -0.0052
- increase in dead-cell fraction (THZ1; 0.001 µM): -0.0029
- increase in dead-cell fraction (THZ1; 0.003162 µM): 0.0113
- increase in dead-cell fraction (THZ1; 0.01 µM): -0.0015
- increase in dead-cell fraction (THZ1; 0.03162 µM): 0.0274
- increase in dead-cell fraction (THZ1; 0.1 µM): 0.083
- increase in dead-cell fraction (THZ1; 0.3162 µM): 0.445
- increase in dead-cell fraction (THZ1; 1 µM): 0.589
- GR50, 72 h (Vorinostat): 1.37 µM
- GR50, 72 h (Ceritinib/LDK378): 1.7 µM
- GR50, 72 h (Taselisib/GDC0032): 2.55 µM
- GR50, 72 h (INK128/MLN0128): 0.163 µM
- GR50, 72 h (AZD2014): 1.92 µM
- GR50, 72 h (THZ531 [6]): 0.345 µM
- GR50, 72 h (Dasatinib): 0.0931 µM
- GR50, 72 h (BSJ-01-175): 0.0356 µM
- GR50, 72 h [7]: 1.55 µM
- GR50, 72 h (Rucaparib): > 10 µM
- GR50, 72 h (BSJ-03-123 [8]): 1.33 µM
- GR50, 72 h [9]: 0.0112 µM
- GR50, 72 h (Volasertib/BI6727): 0.012 µM
- GR50, 72 h (Doxorubicin): 0.00797 µM
- GR50, 72 h (Neratinib/HKI272 [10]): 0.0697 µM
